Experimental findings from patent US20040131619A1, “Thymic atrophy” (DUKE UNIVERSITY, priority 2002, published 2004) are described below.

SMILES strings stand for the structures.

The subject of one assay is BALB/c mice. Nature of the assay: LIF-induced acute thymic atrophy (metyrapone pre-treatment, adrenalectomy). Format: in vivo. The conditions noted are these: metyrapone 30 mg/kg IP 24 hours before LIF for 3 days; P<0.0094. As to the method:
Normal and adrenalectomized female BALB/c mice (6-8 week) were purchased from The Jackson Laboratory (Bar Harbor, Me.). Animals were housed in specific pathogen free conditions in the Duke University Vivarium Barrier (Durham, N.C.). Mouse handling and experimental procedures were conducted in accordance with AALAC and the Duke University IACUC guidelines for animal care and use.
Animals were treated with either E. coli LPS (Sigma, L2880, St. Louis, Mo.), recombinant murine LIF (R&D Systems, Minneapolis, Minn.), goat IgG (Sigma) or anti-mouse LIF polyclonal goat IgG (R&D Systems) and metyrapone (Sigma). Mouse thymus tissue was excised following euthanasia. Half of each thymus was snap frozen in a dry ice/ETOH bath and stored in liquid nitrogen for RNA extraction and the other half was teased into a single-cell suspension as previously described (Sempowski et al, Journal of Immunology 164:2180 (2000)). […]
Normal and bilaterally adrenalectomized BALB/c mice were treated with LIF (3 μg, 3× a day) or saline for 3 days, and the degree of thymic atrophy assessed. […] To evaluate the status of LIF mRNA in the thymus of LIF injected mice, thymus LIF mRNA levels were determined in control and LIF-treated mice. […]

Assay [1] relates to CD3+, CD4/CD8 DP thymocytes. Briefly: Murine fetal thymic organ culture (FTOC). Format: cell-based, mouse. As to the method: Phenotypic analysis of thymocyte suspensions was performed on a FACSVantage SE (Becton Dickinson) using fluorescein isothiocyanate-CD3, phycoerythrin-CD4, and phycoerythrin cychrome 5-CD8 (Pharmingen) as previously described (Sempowski et al, Journal of Immunology 164:2180 (2000)). Annexin V-FITC/propidium iodide (PI) staining was used to determine thymocyte apoptosis, necrosis and viability (Coulter).
FTOC were established following the methods described by Vacchio et al. (Journal of Experimental Medicine 185:2033 (1997)). Briefly, thymic lobes were removed from 17 day gestation fetal mice and were cultured in 6-well plates on Gelfoam (Pharmacia & Upjohn, Kalamazoo, Mich.) rafts. Cultures (2-4 lobes/well) were treated with murine LIF (R&D Systems) with or without metyrapone and then harvested by disruption against a 70 μm cell strainer (Becton Dickinson) with a 1 cc plunger (Becton Dickinson). Total thymocyte number per lobe was determined by hemacytometer count with trypan dye exclusion.
To directly determine if LIF can induce intrathymic corticosteroid production and thymocyte depletion, 17 day fetal thymic lobes in FTOC were treated with LIF (10 ng/ml) in the presence or absence of metyrapone (FIG. 4). Absolute numbers of CD3^+, CD4/CD8 DP thymocytes were quantitated as a measure of in vitro LIF-induced thymic atrophy after 72 hours. […]

In the case of `CC(C)(C(=O)c1cccnc1)c1cccnc1` [Metyrapone, metyrapone], the “inhibition of LIF-induced acute thymic atrophy” value in the assay on BALB/c mice is listed as 43%. The “depletion of DP thymocytes” value in assay [1] (FTOC, 72 hours, agent alone (LIF 10 ng/ml; metyrapone alone), P<0.05) was 8%. Moreover, the “LIF-induced depletion of DP thymocytes” value in assay [1] (metyrapone added to LIF-treated (10 ng/ml) FTOC) is recorded as “prevented”.
